Data published in patent US20040214803A1, “Use of vitamin d3 analogue for the treatment of autoimmune diabetes” (priority 2001, published 2004).

Legend:
IL-12 = conditions: cited from earlier work
IL-12p75 = conditions: short treatment; Mattner et al. 2000; cited from earlier work
NOD mice = conditions: cited from earlier work
[1] = system: vascularized heart allograft; test: Vascularized heart allograft survival, C57BL/6 into BALB/c recipients; assay type: in vivo, mouse; conditions: Dose 5 (unit not given) per os 3x/w every other day from d-1 until d+30
Description: Fully vascularized hearts were grafted into the abdomen of recipient mice as described (Corry, R. J., H. J. Winn, and P. S. Russell. Primarily vascularized allografts of hearts in mice. The role of H-2D, H-2K, and non-H-2 antigens in rejection. Transplantation. 1973, 16:343). Graft survival was monitored by palpation and rejection was confirmed by direct graft inspection.

[2] = administered to NOD mice starting from three weeks of age

Compound: C=C1/C(=C\C=C2/CCC[C@]3(C)[C@@H]([C@H](C)CCCC(C)(C)O)CC[C@@H]23)C[C@@H](O)C[C@@H]1O [1,25(OH)2D3, 1,25-dihydroxyvitamin D3]
- IL-12 production (IL-12): inhibits IL-12 production
- LPS-induced serum levels of both cytokines (IL-12, IFN-γ) (IL-12p75): can be inhibited
- preventing progression of diabetes (NOD mice; administered to NOD mice from 8 weeks of age): ineffective
- incidence of insulitis (NOD mice; [2]): reduces the incidence of insulitis
- type 1 DM development (NOD mice; [2]): prevents type 1 DM development

Compound: C=C1/C(=C\C=C2/CCC[C@@]3(C)C2CCC3[C@H](C)CCCC(C)(C)O)C[C@@H](O)C[C@@H]1O (stereo partly shown) [Reference, reference compound]
- Graft survival (days) Mean [1]: 14.33 days

Compound: C=C1/C(=C\C=C2/CCC[C@@]3(C)C2CCC3[C@@H](C)CCCC(C)(C)O)C[C@@H](O)C[C@@H]1O (stereo partly shown) [MC1288]
- incidence of disease (NOD mice; treatment of 8 week-old NOD mice, combined or alone): neither treatment alone was effective
